Here are results for 21 compounds from ChEMBL document CHEMBL3864158, “Syntheses, cytotoxic activity evaluation and HQSAR study of 1,2,3-triazole-linked isosteviol derivatives as potential anticancer agents” (Bioorg Med Chem Lett, 2016).

A word on the IC50: it is the concentration at which inhibition is half-maximal.

A short description of experiment [1]: Cytotoxicity against human HCT116 cells assessed as decrease in cell proliferation after 72 hrs by MTT assay. Type of experiment: functional, cell-based. As to conditions: HCT-116, 72 h. A general note: Tetrazolium dyes change colour on reduction, which living cells bring about.
Experiment [2] can be described thus: Cytotoxicity against human JeKo1 cells assessed as decrease in cell proliferation after 72 hrs by MTT assay. Type of experiment: functional, cell-based. As to conditions: JeKo-1, 72 h.

As for `CCOC(=O)[C@]1(C)CCC[C@@]2(C)[C@@H]3CC[C@@]4(C)C[C@]3(CC[C@@H]21)C[C@@H]4n1cc(-c2ccccc2)nn1`, the results for the concentration for half-maximal inhibition (IC50) in experiment [1] and in experiment [2] were 48.4 µM and 95.9 µM, respectively.

On to `CCOC(=O)[C@]1(C)CCC[C@@]2(C)[C@@H]3CC[C@@]4(C)C[C@]3(CC[C@@H]21)[C@H](Cn1cc(COc2ccc(C=O)cc2)nn1)[C@H]4O`, for which the values for the IC50 in experiment [1] and in experiment [2] were 6.62 µM and 16.4 µM, respectively.

For `CCOC(=O)[C@]1(C)CCC[C@@]2(C)[C@@H]3CC[C@@]4(C)C[C@]3(CC[C@@H]21)[C@H](Cn1cc(COc2cccc(C=O)c2)nn1)[C@H]4O`, the IC50 stood at 4.64 µM in experiment [1] and 15.6 µM in experiment [2].

As to `CCOC(=O)[C@]1(C)CCC[C@@]2(C)[C@@H]3CC[C@@]4(C)C[C@]3(CC[C@@H]21)C[C@@H]4n1cc(COc2ccccc2C=O)nn1`, the figures for the 50% inhibitory concentration (IC50) in experiment [1] and in experiment [2] were 3.8 µM and 12.2 µM, respectively.

On to `CCOC(=O)[C@]1(C)CCC[C@@]2(C)[C@@H]3CC[C@@]4(C)C[C@]3(CC[C@@H]21)[C@H](CN=[N+]=[N-])[C@H]4O`, for which the concentration for half-maximal inhibition (IC50) amounted to 14.8 µM in experiment [1] and 31.2 µM in experiment [2].

Consider `C[C@@]12CC[C@@H]3[C@@](CC[C@H]4[C@@]3(C)CCC[C@@]4(C)C(=O)O)(CC1=O)C2` [ISOSTEVIOL], for which the half-inhibitory concentration (IC50) in experiment [1] and in experiment [2] was more than 150 µM in each case.

For the compound `CCOC(=O)[C@]1(C)CCC[C@@]2(C)[C@@H]3CC[C@@]4(C)C[C@]3(CC[C@@H]21)C[C@@H]4n1cc(COc2cccc(C=O)c2)nn1`, the IC50 in experiment [1] came to 6.5 µM; in experiment [2] it was 9.5 µM.

As for `CCOC(=O)[C@]1(C)CCC[C@@]2(C)[C@@H]3CC[C@@]4(C)C[C@]3(CC[C@@H]21)[C@H](Cn1cc(COc2ccc(C=O)cc2OC)nn1)[C@H]4O`, the half-maximal inhibitory concentration (IC50) came out at 4.04 µM in experiment [1] and 7.09 µM in experiment [2].

On to `CCOC(=O)[C@]1(C)CCC[C@@]2(C)[C@@H]3CC[C@@]4(C)C[C@]3(CC[C@@H]21)C[C@@H]4n1cc(COc2ccc(C(=O)O)cc2)nn1`, for which the IC50 in experiment [1] was found to be 11.8 µM; in experiment [2], 54.4 µM.

For `CCOC(=O)[C@]1(C)CCC[C@@]2(C)[C@@H]3CC[C@@]4(C)C[C@]3(CC[C@@H]21)C[C@H]4OS(=O)(=O)c1ccc(C)cc1`, the concentration for half-maximal inhibition (IC50) in experiment [1] is 51.4 µM; in experiment [2], 9.75 µM.

`CCOC(=O)[C@]1(C)CCC[C@@]2(C)[C@@H]3CC[C@@]4(C)C[C@]3(CC[C@@H]21)C[C@H]4n1cc(COC(=O)[C@]2(C)CCC[C@@]3(C)[C@@H]4CC[C@@]5(C)C[C@]4(CC[C@@H]32)CC5=O)nn1`: the results for the IC50 in experiment [1] and in experiment [2] were 126 µM and 15.3 µM, respectively.

Consider `CCOC(=O)[C@]1(C)CCC[C@@]2(C)[C@@H]3CC[C@@]4(C)C[C@]3(CC[C@@H]21)[C@H](Cn1cc(-c2ccccc2)nn1)[C@H]4O`, for which the half-maximal inhibitory concentration (IC50) in experiment [1] came out at 8.57 µM; in experiment [2], 18.8 µM.

As to `CCOC(=O)[C@]1(C)CCC[C@@]2(C)[C@@H]3CC[C@@]4(C)C[C@]3(CC[C@@H]21)C[C@@H]4n1cc(COc2ccc(C=O)cc2)nn1`, the values for the IC50 in experiment [1] and in experiment [2] were 8.2 µM and 11.7 µM, respectively.

On to `CCOC(=O)[C@]1(C)CCC[C@@]2(C)[C@@H]3CC[C@@]4(C)C[C@]3(CC[C@@H]21)[C@H](Cn1cc(CO)nn1)[C@H]4O`, for which the IC50 in experiment [1] turned out to be 19.6 µM; in experiment [2], 32.3 µM.

On to `C#CCOC(=O)[C@]1(C)CCC[C@@]2(C)[C@@H]3CC[C@@]4(C)C[C@]3(CC[C@@H]21)CC4=O`, for which the figures for the IC50 in experiment [1] and in experiment [2] were 27.1 µM and 24.7 µM, respectively.

Consider `CCOC(=O)[C@]1(C)CCC[C@@]2(C)[C@@H]3CC[C@@]4(C)C[C@]3(CC[C@@H]21)C[C@@H]4N=[N+]=[N-]`, for which the IC50 in experiment [1] came to 46.1 µM; in experiment [2], 55.2 µM.

Consider `CCOC(=O)[C@]1(C)CCC[C@@]2(C)[C@@H]3CC[C@@]4(C)C[C@]3(CC[C@@H]21)[C@H](Cn1cc(COc2ccccc2C=O)nn1)[C@H]4O`, for which the results for the IC50 in experiment [1] and in experiment [2] were 2.99 µM and 12.7 µM, respectively.

Turning to `CCOC(=O)[C@]1(C)CCC[C@@]2(C)[C@@H]3CC[C@@]4(C)C[C@]3(CC[C@@H]21)[C@H](Cn1cc(COc2ccc(C(C)=O)cc2)nn1)[C@H]4O`, the results for the IC50 in experiment [1] and in experiment [2] were 8.15 µM and 19.6 µM, respectively.

As to `CC(=O)O[C@@H]1O[C@H](n2cc(COC(=O)[C@]3(C)CCC[C@@]4(C)[C@H]5CC[C@@]6(C)C[C@]5(CC[C@@H]43)CC6=O)nn2)[C@@H](OC(C)=O)[C@@H](OC(C)=O)[C@H]1OC(C)=O`, the 50% inhibitory concentration (IC50) in experiment [1] stood at 19.3 µM; in experiment [2] it was 26.3 µM.

On to `CCOC(=O)[C@]1(C)CCC[C@@]2(C)[C@@H]3CC[C@@]4(C)C[C@]3(CC[C@@H]21)C[C@@H]4n1cc(COc2ccc(C=O)cc2OC)nn1`, for which the half-inhibitory concentration (IC50) amounted to 7.18 µM in experiment [1] and 10.9 µM in experiment [2].

On to `CCOC(=O)[C@]1(C)CCC[C@@]2(C)[C@@H]3CC[C@@]4(C)C[C@]3(CC[C@@H]21)C[C@@H]4n1cc(COc2ccc(C(C)=O)cc2)nn1`, for which the 50% inhibitory concentration (IC50) in experiment [1] was found to be 9.62 µM; in experiment [2], 13.9 µM.
